Test results as given in the NIST ThermoML archive (doi:10.1016/j.jct.2011.10.014).
± gives the expanded uncertainty stated by the source.

Assay: molar heat capacity at constant pressure
Settings: 101.33 kPa, Crystal, Vacuum adiabatic calorimetry

O=C([O-])[O-].[Pb+2] [lead(II) carbonate]
Settings | molar heat capacity at constant pressure [J/K/mol]
4.385 K | 0.052 ± 0.0081
4.419 K | 0.0555 ± 0.0081
4.738 K | 0.06322 ± 0.0082
4.754 K | 0.06377 ± 0.0082
5 K | 0.0763 ± 0.011
5.09 K | 0.08024 ± 0.0083
5.104 K | 0.08019 ± 0.0083
5.342 K | 0.09726 ± 0.0084
5.363 K | 0.09954 ± 0.0085
5.585 K | 0.1145 ± 0.0086
5.612 K | 0.1163 ± 0.0086
5.83 K | 0.1316 ± 0.0088
5.868 K | 0.1342 ± 0.0088
6.078 K | 0.1519 ± 0.0092
6.126 K | 0.1554 ± 0.0092
6.413 K | 0.1893 ± 0.0099
6.471 K | 0.1928 ± 0.01
6.838 K | 0.2414 ± 0.011
6.899 K | 0.256 ± 0.011
7.267 K | 0.3073 ± 0.013
7.34 K | 0.322 ± 0.013
7.699 K | 0.3863 ± 0.015
7.78 K | 0.4013 ± 0.015
8.134 K | 0.4809 ± 0.017
8.222 K | 0.5005 ± 0.018
8.575 K | 0.5882 ± 0.02
8.668 K | 0.606 ± 0.02
9.015 K | 0.7106 ± 0.023
9.108 K | 0.7478 ± 0.024
9.458 K | 0.85 ± 0.027
9.558 K | 0.8902 ± 0.028
9.903 K | 1.01 ± 0.032
10 K | 1.048 ± 0.018
10.01 K | 1.055 ± 0.033
10.57 K | 1.286 ± 0.04
10.68 K | 1.33 ± 0.041
11.46 K | 1.695 ± 0.051
11.57 K | 1.751 ± 0.053
12.36 K | 2.155 ± 0.065
12.47 K | 2.216 ± 0.066
13.27 K | 2.654 ± 0.079
13.38 K | 2.746 ± 0.082
14.19 K | 3.244 ± 0.096
14.31 K | 3.33 ± 0.098
15 K | 3.776 ± 0.036
15.13 K | 3.866 ± 0.11
15.25 K | 3.962 ± 0.12
16.07 K | 4.511 ± 0.13
16.2 K | 4.595 ± 0.13
17.03 K | 5.162 ± 0.15
17.16 K | 5.276 ± 0.15
17.99 K | 5.902 ± 0.17
18.12 K | 6.01 ± 0.18
18.95 K | 6.635 ± 0.19
19.09 K | 6.747 ± 0.2
19.93 K | 7.37 ± 0.21
20 K | 7.42 ± 0.052
20.06 K | 7.466 ± 0.22
21.41 K | 8.521 ± 0.25
21.54 K | 8.639 ± 0.25
23.39 K | 10.08 ± 0.29
23.53 K | 10.19 ± 0.29
25 K | 11.38 ± 0.06
25.4 K | 11.68 ± 0.34
27.41 K | 13.32 ± 0.38
29.43 K | 14.96 ± 0.43
30 K | 15.38 ± 0.07
31.45 K | 16.55 ± 0.48
33.46 K | 18.13 ± 0.52
35 K | 19.37 ± 0.08
35.48 K | 19.73 ± 0.57
36.7 K | 20.7 ± 0.59
37.49 K | 21.32 ± 0.61
38.5 K | 22.12 ± 0.64
40 K | 23.28 ± 0.09
40.51 K | 23.65 ± 0.12
42.52 K | 25.25 ± 0.13
44.53 K | 26.66 ± 0.14
45 K | 27.01 ± 0.09
46.54 K | 28.07 ± 0.15
48.55 K | 29.49 ± 0.15
50 K | 30.59 ± 0.1
50.55 K | 30.94 ± 0.16
52.55 K | 32.41 ± 0.17
54.56 K | 33.8 ± 0.17
55 K | 33.98 ± 0.11
56.56 K | 35.05 ± 0.18
58.57 K | 36.13 ± 0.18
60 K | 37.15 ± 0.11
60.52 K | 37.48 ± 0.19
62.4 K | 38.61 ± 0.2
64.2 K | 39.65 ± 0.2
65 K | 40.1 ± 0.12
65.95 K | 40.66 ± 0.21
67.63 K | 41.57 ± 0.21
69.27 K | 42.35 ± 0.21
70 K | 42.8 ± 0.13
71.59 K | 43.59 ± 0.22
74.62 K | 45.09 ± 0.23
75 K | 45.29 ± 0.13
77.67 K | 46.51 ± 0.23
79.9 K | 47.55 ± 0.24
80 K | 47.58 ± 0.14
80.72 K | 47.85 ± 0.14
83.04 K | 48.9 ± 0.14
85 K | 49.68 ± 0.14
86.1 K | 50.14 ± 0.15
89.18 K | 51.33 ± 0.15
90 K | 51.61 ± 0.25
92.25 K | 52.45 ± 0.21
95 K | 53.38 ± 0.25
95.34 K | 53.5 ± 0.21
98.43 K | 54.49 ± 0.22
100 K | 55 ± 0.26
101.53 K | 55.5 ± 0.22
104.63 K | 56.35 ± 0.22
107.75 K | 57.22 ± 0.22
110 K | 57.87 ± 0.26
110.87 K | 58.11 ± 0.22
114 K | 58.89 ± 0.22
117.14 K | 59.63 ± 0.23
120 K | 60.33 ± 0.26
120.28 K | 60.41 ± 0.23
123.43 K | 61.11 ± 0.23
126.59 K | 61.8 ± 0.23
129.77 K | 62.5 ± 0.23
130 K | 62.53 ± 0.26
132.94 K | 63.15 ± 0.23
136.13 K | 63.79 ± 0.23
139.31 K | 64.43 ± 0.23
140 K | 64.55 ± 0.26
142.51 K | 65.03 ± 0.24
145.71 K | 65.61 ± 0.24
148.92 K | 66.19 ± 0.24
150 K | 66.42 ± 0.27
152.13 K | 66.84 ± 0.24
155.35 K | 67.35 ± 0.24
158.57 K | 67.88 ± 0.24
160 K | 68.14 ± 0.27
161.81 K | 68.4 ± 0.24
165.05 K | 68.98 ± 0.24
168.31 K | 69.49 ± 0.24
170 K | 69.74 ± 0.27
171.58 K | 70.05 ± 0.24
174.85 K | 70.51 ± 0.25
178.14 K | 70.92 ± 0.25
180 K | 71.28 ± 0.27
181.44 K | 71.38 ± 0.25
184.74 K | 71.87 ± 0.25
188.04 K | 72.41 ± 0.25
190 K | 72.72 ± 0.27
191.34 K | 72.91 ± 0.25
194.61 K | 73.4 ± 0.25
197.88 K | 73.88 ± 0.25
200 K | 74.07 ± 0.27
201.13 K | 74.3 ± 0.25
204.38 K | 74.74 ± 0.26
207.61 K | 75.11 ± 0.26
210 K | 75.37 ± 0.28
210.84 K | 75.52 ± 0.26
214.06 K | 75.82 ± 0.26
217.25 K | 76.33 ± 0.26
220 K | 76.66 ± 0.28
220.45 K | 76.69 ± 0.26
223.63 K | 77.07 ± 0.26
226.8 K | 77.37 ± 0.26
